Measured values as given in US11013725B2, “Therapeutic agents for inner ear hearing impairment” (Keio University, priority 2015, dated 2021).

Columns and labels:
[1] = system: inner ear cells derived from iPS cells of patients with Pendred syndrome; assay: Apoptosis under epoxomicin cellular stress (Cleaved caspase 3 staining of pendrin-positive cells); type: cell-based, human
Description: Pendrin-positive cells were induced from iPS cells derived from patients and iPS/ES cells derived from healthy subjects using the above method. The differentiation-induced cells were subjected to the following treatment. In the rapamycin administration group, rapamycin was administered for 3 days. In the cellular stress/rapamycin group, rapamycin (0.2 nM) was administered for 2 days and then epoxomicin (0.5 μM) was administered as cellular stress for 24 hours along with rapamycin. In the cellular stress group, DMSO was administered for 2 days and then only epoxomicin (0.5 μM) was administered as cellular stress for 24 hours. For fluorescent antibody staining, goat anti-pendrin antibody and rabbit anti-Cleaved Caspase 3 antibody were added (1:100 and 1:300, respectively) to the fixed cells on glass slides after antigen retrieval. Cell nuclei were then stained with Hoechst 33258 (diluted 1:1000). […] Pendrin-positive cells were induced from iPS cells derived from patients and iPS/ES cells derived from healthy subjects using the above method. The differentiation-induced cells were subjected to the following. In the rapamycin administration group, rapamycin was administered for 3 days. In the cellular stress/rapamycin group, rapamycin (0.2 nM) was administered for 2 days and then epoxomicin (0.5 μM) was administered as cellular stress for 24 hours along with rapamycin. In the cellular stress group, DMSO was administered for 2 days and then only epoxomicin (0.5 μM) was administered as cellular stress for 24 hours. […] For fluorescent antibody staining, goat anti-pendrin antibody and rabbit anti-Cleaved Caspase 3 antibody were added (1:100 and 1:300, respectively) to the fixed cells on glass slides after antigen retrieval. Cell nuclei were then stained with Hoechst 33258 (diluted 1:1000). […] Pendrin-positive cells were induced from iPS cells derived from patients and iPS/ES cells derived from healthy subjects using the above method. The differentiation-induced cells were subjected to the following treatment. In the calpeptin administration group, calpeptin was administered for 3 days. […]

[2] = system: neurons; details: stated as known; cited from earlier work
[3] = system: inner ear cells derived from iPS cells of patients with Pendred syndrome; assay: Measurement of cell viability under epoxomicin cellular stress (count of cells positive for pendrin but negative for Cleaved caspase 3); type: cell-based, human
Description: Pendrin-positive cells were induced from iPS cells derived from patients and iPS/ES cells derived from healthy subjects using the above method. The differentiation-induced cells were subjected to the following treatment. In the rapamycin administration group, rapamycin was administered for 3 days. In the cellular stress/rapamycin group, rapamycin (0.2 nM) was administered for 2 days and then epoxomicin (0.5 μM) was administered as cellular stress for 24 hours along with rapamycin. In the cellular stress group, DMSO was administered for 2 days and then only epoxomicin (0.5 μM) was administered as cellular stress for 24 hours. For fluorescent antibody staining, goat anti-pendrin antibody and rabbit anti-Cleaved Caspase 3 antibody were added (1:100 and 1:300, respectively) to the fixed cells on glass slides after antigen retrieval. Cell nuclei were then stained with Hoechst 33258 (diluted 1:1000). […] Pendrin-positive cells were induced from iPS cells derived from patients and iPS/ES cells derived from healthy subjects using the above method. The differentiation-induced cells were subjected to the following treatment. In the rapamycin administration group, rapamycin was administered for 3 days. In the cellular stress/rapamycin group, rapamycin (0.2 nM) was administered for 2 days and then epoxomicin (0.5 μM) was administered as cellular stress for 24 hours along with rapamycin. […]

[4] = system: differentiation-induced inner ear sensory epithelial cells; assay: Administration of gentamicin to differentiation-induced inner ear sensory epithelial cells (cytotoxicity, number of cells); type: cell-based, human; details: gentamicin injection diluted 80 times, administered for 10 days; FIG. 7
Description: (1-5) Administration of Gentamicin Known to Have Inner Ear Toxicity to Differentiation-Induced Inner Ear Sensory Epithelial Cells
A gentamicin injection diluted 80 times was administered for 10 days to the inner ear sensory epithelial cells whose differentiation had been induced using this method.

Q: For CCCC[C@@H](C=O)NC(=O)[C@H](CC(C)C)NC(=O)OCc1ccccc1 [Calpeptin], which “apoptosis when cells are stressed” value ([1]; calpeptin 0.5 nM for 2 days, then epoxomicin 0.5 μM for 24 hours along with calpeptin, FIG. 14, reference example) is on record?
A: cannot inhibit apoptosis

Q: And the “apoptosis of neurons in neurodegenerative diseases and the like” value [2]?
A: known to inhibit apoptosis of neurons

Q: With CN(C)C(=N)NC(=N)N [metformin] as the molecule, how does the “apoptosis when cells are stressed” value ([1]; 1 mM or 10 mM metformin for 2 days, then epoxomicin 0.5 μM for 24 hours along with metformin, FIG. 13) read?
A: inhibits apoptosis

Q: And the “decrease in the cell viability when cells are stressed” value ([3]; 1 mM or 10 mM metformin for 2 days, then epoxomicin 0.5 μM for 24 hours along with metformin, FIG. 12)?
A: suppresses the decrease in the cell viability

Q: Which results are given for CO[C@H]1C[C@@H]2CC[C@@H](C)[C@@](O)(O2)C(=O)C(=O)N2CCCC[C@H]2C(=O)O[C@H]([C@H](C)C[C@@H]2CC[C@@H](O)[C@H](OC)C2)CC(=O)[C@H](C)/C=C(\C)[C@@H](O)[C@@H](OC)C(=O)[C@H](C)C[C@H](C)/C=C/C=C/C=C/1C [rapamycin]?
A: apoptosis when cells are stressed (cells positive for pendrin and Cleaved caspase 3) ([1]; rapamycin 0.2 nM for 2 days, then epoxomicin 0.5 μM for 24 hours along with rapamycin, FIG. 11): inhibits such apoptosis; decrease in cell viabilities when cells are stressed ([3]; rapamycin 0.2 nM for 2 days, then epoxomicin 0.5 μM for 24 hours along with rapamycin, FIG. 10): suppresses decrease in cell viabilities

Q: With gentamicin as the molecule, how does the “number of cells as compared with a control group (cytotoxicity)” value [4] read?
A: significantly decreased
